pIC50: −log10 of the molar value.

Assay [1] relates to MCF7. In words: Antiproliferative activity against human MCF7 cells after 48 hrs by MTT assay. The settings on record: MCF7, 48 h. On the technique in general: Formazan colour is commonly taken as a measure of viable cells.
The target of assay [2] is Epidermal growth factor receptor (Homo sapiens, UniProt P00533).
Description: Inhibition of human recombinant His6x-tagged EGFR autophosphorylation expressed in Sf9 cells after 1 hr by ELISA
For assay [3], the target named is Receptor tyrosine-protein kinase erbB-2 (Homo sapiens, UniProt P04626).
Sequence of Receptor tyrosine-protein kinase erbB-2 (P04626 whole entry): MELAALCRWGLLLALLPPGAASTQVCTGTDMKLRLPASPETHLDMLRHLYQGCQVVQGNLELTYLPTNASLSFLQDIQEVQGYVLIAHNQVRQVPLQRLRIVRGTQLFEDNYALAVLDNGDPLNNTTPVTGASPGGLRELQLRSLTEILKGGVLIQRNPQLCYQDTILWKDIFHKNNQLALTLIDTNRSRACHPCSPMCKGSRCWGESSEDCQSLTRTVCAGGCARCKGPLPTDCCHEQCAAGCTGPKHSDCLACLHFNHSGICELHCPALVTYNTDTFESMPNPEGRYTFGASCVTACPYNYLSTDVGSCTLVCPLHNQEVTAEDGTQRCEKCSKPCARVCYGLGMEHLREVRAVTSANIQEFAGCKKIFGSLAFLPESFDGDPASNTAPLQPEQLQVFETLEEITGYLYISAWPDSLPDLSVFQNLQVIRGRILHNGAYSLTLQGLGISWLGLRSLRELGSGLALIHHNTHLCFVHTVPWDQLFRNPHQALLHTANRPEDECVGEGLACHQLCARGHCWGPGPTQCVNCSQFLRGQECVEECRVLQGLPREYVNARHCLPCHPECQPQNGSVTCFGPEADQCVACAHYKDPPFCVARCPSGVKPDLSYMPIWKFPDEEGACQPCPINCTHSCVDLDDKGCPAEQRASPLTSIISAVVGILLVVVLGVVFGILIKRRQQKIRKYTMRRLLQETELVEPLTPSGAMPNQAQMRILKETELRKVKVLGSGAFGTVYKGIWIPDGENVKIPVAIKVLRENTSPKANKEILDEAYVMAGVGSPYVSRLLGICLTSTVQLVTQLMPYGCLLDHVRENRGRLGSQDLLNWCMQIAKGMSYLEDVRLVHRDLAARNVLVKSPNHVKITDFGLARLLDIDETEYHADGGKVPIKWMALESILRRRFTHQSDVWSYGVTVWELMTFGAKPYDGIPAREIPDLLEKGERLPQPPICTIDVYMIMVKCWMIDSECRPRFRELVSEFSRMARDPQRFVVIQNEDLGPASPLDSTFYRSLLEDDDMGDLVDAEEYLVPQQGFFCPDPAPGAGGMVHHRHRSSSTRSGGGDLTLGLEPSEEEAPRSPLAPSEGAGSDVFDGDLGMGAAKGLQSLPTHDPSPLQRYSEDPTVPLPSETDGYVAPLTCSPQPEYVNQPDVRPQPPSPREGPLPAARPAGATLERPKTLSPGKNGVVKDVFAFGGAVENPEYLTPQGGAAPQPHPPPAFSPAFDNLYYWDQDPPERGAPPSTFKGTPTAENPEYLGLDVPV
Description: Inhibition of human recombinant His6x-tagged HER2 autophosphorylation expressed in Sf9 cells after 1 hr by ELISA

Sequence of Epidermal growth factor receptor (P00533 whole entry): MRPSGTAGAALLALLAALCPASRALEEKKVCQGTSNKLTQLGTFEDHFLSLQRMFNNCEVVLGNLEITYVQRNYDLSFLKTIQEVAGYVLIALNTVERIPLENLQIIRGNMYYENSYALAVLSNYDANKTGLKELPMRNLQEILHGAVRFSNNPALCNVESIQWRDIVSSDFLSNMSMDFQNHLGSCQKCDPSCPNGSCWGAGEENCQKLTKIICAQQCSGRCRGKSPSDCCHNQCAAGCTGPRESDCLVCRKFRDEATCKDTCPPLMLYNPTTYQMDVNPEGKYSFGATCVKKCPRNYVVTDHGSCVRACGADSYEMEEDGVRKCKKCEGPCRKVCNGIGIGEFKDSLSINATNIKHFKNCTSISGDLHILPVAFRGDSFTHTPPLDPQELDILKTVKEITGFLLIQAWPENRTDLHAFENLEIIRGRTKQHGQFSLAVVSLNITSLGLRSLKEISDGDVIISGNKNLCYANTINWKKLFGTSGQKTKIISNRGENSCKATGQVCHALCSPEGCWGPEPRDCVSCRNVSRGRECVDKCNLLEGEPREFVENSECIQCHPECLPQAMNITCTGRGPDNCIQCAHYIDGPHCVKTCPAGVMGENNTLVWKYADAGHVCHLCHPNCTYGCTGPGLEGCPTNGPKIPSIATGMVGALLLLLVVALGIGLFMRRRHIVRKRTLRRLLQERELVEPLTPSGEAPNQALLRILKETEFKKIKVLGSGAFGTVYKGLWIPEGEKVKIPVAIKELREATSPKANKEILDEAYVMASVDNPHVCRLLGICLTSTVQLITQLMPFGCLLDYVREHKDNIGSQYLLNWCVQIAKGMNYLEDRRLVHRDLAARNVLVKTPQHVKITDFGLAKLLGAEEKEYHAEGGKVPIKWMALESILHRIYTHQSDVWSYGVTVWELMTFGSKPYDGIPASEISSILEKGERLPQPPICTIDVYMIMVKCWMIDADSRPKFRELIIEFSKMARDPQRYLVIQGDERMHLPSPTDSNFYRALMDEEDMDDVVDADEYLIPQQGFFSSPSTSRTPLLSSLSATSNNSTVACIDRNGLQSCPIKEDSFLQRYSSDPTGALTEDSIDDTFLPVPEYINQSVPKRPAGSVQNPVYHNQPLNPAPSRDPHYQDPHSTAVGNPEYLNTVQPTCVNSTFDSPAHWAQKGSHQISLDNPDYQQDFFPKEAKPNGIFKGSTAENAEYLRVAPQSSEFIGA

Broadly, the pIC50 is −log10 of the IC50, conventionally taken in molar units. Consider `Cc1ncc([N+](=O)[O-])n1CCOC(=O)/C=C/c1ccc(Cl)cc1`, for which the pIC50 was 5.52 in assay [1], 5.44 in assay [2] and 5.32 in assay [3].

Regarding `Cc1ncc([N+](=O)[O-])n1CCOC(=O)/C=C/c1ccccc1F`, the pIC50 was 4.82 in assay [1], 4.57 in assay [2] and 4.38 in assay [3].

Regarding `Cc1ncc([N+](=O)[O-])n1CCOC(=O)/C=C/c1cccc([N+](=O)[O-])c1`, the results for the pIC50 in assay [1], in assay [2] and in assay [3] were 5.25, 4.84 and 4.71, respectively.

Regarding `Cc1ncc([N+](=O)[O-])n1CCOC(=O)/C=C/c1ccc(C(C)C)cc1`, the figures for the pIC50 in assay [1], in assay [2] and in assay [3] were 5.30, 5.17 and 5.00, respectively.

With `Cc1ncc([N+](=O)[O-])n1CCOC(=O)/C=C/c1ccc(Br)cc1`, the pIC50 in assay [1] is 5.61; in assay [2], 5.49; in assay [3], 5.33.

Take `Cc1ncc([N+](=O)[O-])n1CCOC(=O)/C=C/c1ccccc1`: the pIC50 was 5.36 in assay [1], 5.11 in assay [2] and 4.97 in assay [3].

As to `Cc1ncc([N+](=O)[O-])n1CCOC(=O)/C=C/c1ccccc1Cl`, the pIC50 in assay [1] was 4.74; in assay [2], 4.68; in assay [3] it was 4.44.

With `Cc1ncc([N+](=O)[O-])n1CCOC(=O)/C=C/c1ccccc1Br`, the pIC50 in assay [1] was 4.80; in assay [2] it was 4.61; in assay [3] it was 4.35.

`Cc1ncc([N+](=O)[O-])n1CCOC(=O)/C=C/c1cccc(F)c1`: the figures for the pIC50 in assay [1], in assay [2] and in assay [3] were 5.23, 4.91 and 4.78, respectively.

`COc1cccc(/C=C/C(=O)OCCn2c([N+](=O)[O-])cnc2C)c1`: the pIC50 is 5.24 in assay [1], 4.86 in assay [2] and 4.73 in assay [3].

Consider `Cc1ccc(/C=C/C(=O)OCCn2c([N+](=O)[O-])cnc2C)cc1`, for which the pIC50 in assay [1] is 5.37; in assay [2] it was 5.09; in assay [3], 5.02.

Consider `COc1ccccc1/C=C/C(=O)OCCn1c([N+](=O)[O-])cnc1C`, for which the pIC50 is 4.70 in assay [1], 4.49 in assay [2] and less than 4.30 in assay [3].

Take `Cc1ncc([N+](=O)[O-])n1CCOC(=O)/C=C/c1ccc2ccccc2c1`: the values for the pIC50 in assay [1], in assay [2] and in assay [3] were 5.39, 5.24 and 5.03, respectively.

For `Cc1ncc([N+](=O)[O-])n1CCOC(=O)/C=C/c1cccc2ccccc12`, the pIC50 in assay [1] was 5.47; in assay [2], 5.41; in assay [3] it was 5.30.

The molecule `Cc1ncc([N+](=O)[O-])n1CCOC(=O)/C=C/c1ccc(OCc2ccccc2)cc1` showed a pIC50 in assay [3] of 5.46.

For `Cc1ncc([N+](=O)[O-])n1CCOC(=O)/C=C/c1ccc(-c2ccccc2)cc1`, the pIC50 in assay [1] was 6.44; in assay [2] it was 6.21; in assay [3], 5.67.

With `Cc1ncc([N+](=O)[O-])n1CCOC(=O)/C=C/c1ccccc1[N+](=O)[O-]`, the pIC50 is 4.77 in assay [1], 4.60 in assay [2] and 4.40 in assay [3].

Turning to `COc1ccc(/C=C/C(=O)OCCn2c([N+](=O)[O-])cnc2C)cc1`, the pIC50 in assay [1] is 5.26; in assay [2], 4.96; in assay [3] it was 4.84.

Regarding `Cc1ncc([N+](=O)[O-])n1CCOC(=O)/C=C/c1ccc(F)cc1`, the results for the pIC50 in assay [1], in assay [2] and in assay [3] were 5.42, 5.39 and 5.23, respectively.

Source of the values: ChEMBL document CHEMBL1177684, “Synthesis, molecular modeling, and biological evaluation of cinnamic acid metronidazole ester derivatives as novel anticancer agents” (Bioorg Med Chem, 2010).
